Results as given in ChEMBL document CHEMBL1201862, “PubChem BioAssay data set” (2004).
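These data come from cells grown in 96-well plates and exposed to compound for 48 hours at five concentrations. GI50 marks 50% less growth.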 Calls of active or inactive are those of the source. Rule as the data show it: active = GI50 up to about 1.1 µM and inactive = higher.

Columns and labels:
Assay in all cases: inhibition of tumour cell growth, NCI panel, 48 h
SF-295 = tested on: SF-295
LOX IMVI = tested on: LOX IMVI
MCF7 = tested on: MCF7
HT-29 = tested on: HT-29
EKVX = tested on: EKVX
SF-539 = tested on: SF-539
NCI-H522 = tested on: NCI-H522
SNB-75 = tested on: SNB-75
BT-549 = tested on: BT-549
UACC-257 = tested on: UACC-257
MOLT-4 = tested on: MOLT-4
IGROV-1 = tested on: IGROV-1
RXF 393 = tested on: RXF 393
OVCAR-5 = tested on: OVCAR-5
NCI/ADR-RES = tested on: NCI/ADR-RES
PC-3 = tested on: PC-3
K562 = tested on: K562
SW-620 = tested on: SW-620
CCRF-CEM = tested on: CCRF-CEM
U-251 = tested on: U-251

Structure (SMILES) | GI50 (SF-295) | GI50 (LOX IMVI) | GI50 (MCF7) | GI50 (HT-29) | GI50 (EKVX) | GI50 (SF-539) | GI50 (NCI-H522) | GI50 (SNB-75) | GI50 (BT-549) | GI50 (UACC-257) | GI50 (MOLT-4) | GI50 (IGROV-1) | GI50 (RXF 393) | GI50 (OVCAR-5) | GI50 (NCI/ADR-RES) | GI50 (PC-3) | GI50 (K562) | GI50 (SW-620) | GI50 (CCRF-CEM) | GI50 (U-251)
CC1CC[C@@]2(OC1)OC1C[C@H]3[C@@H]4CC=C5C[C@@H](OC6OC(CO)C(OC7OC(CO)C(O)C(O)C7O)C(O)C6OC6OC(C)C(O)C(O)C6O)CC[C@]5(C)[C@H]4CC[C@]3(C)C1[C@@H]2C (some centres undefined) | 1.94 µM (inactive) | 0.462 µM (active) | 0.587 µM (active) | 0.475 µM (active) | 0.544 µM (active) | 0.491 µM (active) | 0.998 µM (active) | 2.07 µM (inactive) | 0.463 µM (active) | 0.526 µM (active) | 0.434 µM (active) | 0.516 µM (active) | 0.431 µM (active) | 1.42 µM (inactive) | 2.07 µM (inactive) | 0.469 µM (active) | 0.466 µM (active) | 0.624 µM (active) | 0.617 µM (active) | 0.493 µM (active)
O=C1Nc2ccc(Br)cc2/C1=N/Nc1ccccc1[N+](=O)[O-] | 14 µM (inactive) | 15.2 µM (inactive) | 20.8 µM (inactive) | 13.8 µM (inactive) | 6.31 µM (inactive) | > 100 µM (inactive) | 15.5 µM (inactive) | 15.8 µM (inactive) | 30.7 µM (inactive) | 13.3 µM (inactive) | 42.9 µM (inactive) | 0.261 µM (active) | 32.7 µM (inactive) | 12.7 µM (inactive) | 15.8 µM (inactive) | 15.8 µM (inactive) | 16.6 µM (inactive) | 25 µM (inactive) | 12.5 µM (inactive) | 35.4 µM (inactive)
CC(=O)c1c2c(cc3c1CC1(C3)Cc3ccc4c(c3C1=O)CCC4)CCC2 (centres undefined) | 93.3 µM (inactive) | 14.8 µM (inactive) | 16.7 µM (inactive) | 11.8 µM (inactive) | 7.13 µM (inactive) | > 100 µM (inactive) | 0.74 µM (active) | 16.9 µM (inactive) | 62.4 µM (inactive) | 2.75 µM (inactive) | 22.3 µM (inactive) | 87.3 µM (inactive) | 9.64 µM (inactive) | > 100 µM (inactive) | 2.07 µM (inactive) | 16 µM (inactive) | 6.58 µM (inactive) | 32.7 µM (inactive) | 19.3 µM (inactive) | 56.9 µM (inactive)
C[C@H]1C2Cc3cc(N)ccc3[C@@]1(C)CCN2CCc1ccccc1 | 27.4 µM (inactive) | 20.2 µM (inactive) | 25.2 µM (inactive) | 6.49 µM (inactive) | 40.6 µM (inactive) | 45.2 µM (inactive) | 13.2 µM (inactive) | 85.1 µM (inactive) | > 100 µM (inactive) | 30.7 µM (inactive) | 20.4 µM (inactive) | 41.9 µM (inactive) | 33.3 µM (inactive) | 74.6 µM (inactive) | 42.3 µM (inactive) | 22.6 µM (inactive) | 28.8 µM (inactive) | 64.7 µM (inactive) | 33.2 µM (inactive) | 43.8 µM (inactive)
Nc1nc(N)c(CCCCc2ccc([N+](=O)[O-])cc2)c(N)n1 | 17.1 µM (inactive) | 6.62 µM (inactive) | > 100 µM (inactive) | 7.67 µM (inactive) | > 100 µM (inactive) | > 85.3 µM (inactive) | > 83.6 µM (inactive) | > 100 µM (inactive) | > 100 µM (inactive) | > 96.2 µM (inactive) | 8.22 µM (inactive) | 23.6 µM (inactive) | 24.9 µM (inactive) | 78.7 µM (inactive) | > 100 µM (inactive) | 7.71 µM (inactive) | 3.86 µM (inactive) | > 30.5 µM (inactive) | > 20.3 µM (inactive) | 10.6 µM (inactive)
CC(=O)O[C@H]1[C@H](OC(C)=O)[C@@H](CN=[N+]=[N-])OCO[C@@H]1CN=[N+]=[N-] | > 100 µM (inactive) | > 100 µM (inactive) | > 100 µM (inactive) | > 100 µM (inactive) | > 100 µM (inactive) | > 100 µM (inactive) | > 100 µM (inactive) | > 100 µM (inactive) | > 100 µM (inactive) | > 100 µM (inactive) | > 100 µM (inactive) | > 100 µM (inactive) | > 100 µM (inactive) | > 100 µM (inactive) | > 100 µM (inactive) | > 100 µM (inactive) | > 100 µM (inactive) | > 100 µM (inactive) | > 100 µM (inactive) | > 100 µM (inactive)
CCOC(=O)/C=C(/C(=O)OCC)n1cc(C)c(=O)n(/C(=C/C(=O)OCC)C(=O)OCC)c1=O | 18.7 µM (inactive) | 1.74 µM (inactive) | 1.91 µM (inactive) | 2.69 µM (inactive) | 3.06 µM (inactive) | 8.85 µM (inactive) | 0.49 µM (active) | 9.73 µM (inactive) | 5.79 µM (inactive) | 4.9 µM (inactive) | 1.32 µM (inactive) | 4.75 µM (inactive) | 1.8 µM (inactive) | 6.62 µM (inactive) | 8.36 µM (inactive) | 5.22 µM (inactive) | 1.58 µM (inactive) | 1.22 µM (inactive) | 0.354 µM (active) | 6.93 µM (inactive)
CN(C)CCNC(=O)c1cccc2nc3c(C(=O)NCCN(C)C)cccc3nc12 | 1.31 µM (inactive) | 0.366 µM (active) | 0.706 µM (active) | 0.321 µM (active) | 1.49 µM (inactive) | 1.92 µM (inactive) | 0.458 µM (active) | 2.63 µM (inactive) | 3.18 µM (inactive) | 2.14 µM (inactive) | 0.43 µM (active) | 1.78 µM (inactive) | 1.44 µM (inactive) | 2.3 µM (inactive) | 5.15 µM (inactive) | 0.76 µM (active) | 0.621 µM (active) | 0.462 µM (active) | 0.59 µM (active) | 0.632 µM (active)
CCOC(=O)/C=C(/C(=O)OCC)n1cc(Cl)c(=O)n(CC(=O)OCC)c1=O | > 25 µM (inactive) | 4.37 µM (inactive) | 22.9 µM (inactive) | 4.56 µM (inactive) | 5.27 µM (inactive) | 5.04 µM (inactive) | 1.45 µM (inactive) | 5.13 µM (inactive) | 5.92 µM (inactive) | 4.94 µM (inactive) | 1.15 µM (inactive) | 4.76 µM (inactive) | 4.57 µM (inactive) | 4.52 µM (inactive) | 8.95 µM (inactive) | 4.76 µM (inactive) | 2.1 µM (inactive) | 0.995 µM (active) | 0.444 µM (active) | 5.83 µM (inactive)
Cc1cc(S(=O)(=O)NC2=Nc3cccc4cccc(c34)N2)c(S)cc1Cl | 39.5 µM (inactive) | 70.5 µM (inactive) | > 100 µM (inactive) | – | > 100 µM (inactive) | > 100 µM (inactive) | > 100 µM (inactive) | > 100 µM (inactive) | > 100 µM (inactive) | > 100 µM (inactive) | 41.6 µM (inactive) | 63.5 µM (inactive) | 97.5 µM (inactive) | > 100 µM (inactive) | > 100 µM (inactive) | 65.3 µM (inactive) | > 100 µM (inactive) | 78.7 µM (inactive) | 44.5 µM (inactive) | 50 µM (inactive)
Oc1ccccc1/C=N/c1ccc(-c2nc3ccccc3[nH]2)cc1 | 71 µM (inactive) | > 100 µM (inactive) | 20.7 µM (inactive) | 81.8 µM (inactive) | > 100 µM (inactive) | > 100 µM (inactive) | 63.5 µM (inactive) | 42.1 µM (inactive) | 12.8 µM (inactive) | 47.8 µM (inactive) | 21.3 µM (inactive) | 28.4 µM (inactive) | 29.7 µM (inactive) | > 100 µM (inactive) | 4.53 µM (inactive) | 50.5 µM (inactive) | 43.2 µM (inactive) | 90.2 µM (inactive) | 22.5 µM (inactive) | 49.9 µM (inactive)
CC[C@@]1(O)C(=O)OCc2c1cc1n(c2=O)Cc2c-1nc1ccccc1c2/C=N/NC(=O)C[N+](C)(C)C | 0.56 µM (active) | 0.824 µM (active) | 0.192 µM (active) | 13.2 µM (inactive) | 47.9 µM (inactive) | 0.386 µM (active) | 2.26 µM (inactive) | 0.525 µM (active) | 15.4 µM (inactive) | 12.7 µM (inactive) | 0.207 µM (active) | 38.8 µM (inactive) | 0.697 µM (active) | 30.4 µM (inactive) | 1.65 µM (inactive) | 9.59 µM (inactive) | 2.86 µM (inactive) | 4.99 µM (inactive) | 0.123 µM (active) | 1.11 µM (active)
Cc1[nH]n(C2=NCCN2)c(=O)c1C | > 100 µM (inactive) | > 100 µM (inactive) | > 100 µM (inactive) | > 100 µM (inactive) | > 100 µM (inactive) | > 100 µM (inactive) | > 100 µM (inactive) | 89.5 µM (inactive) | > 100 µM (inactive) | > 100 µM (inactive) | > 100 µM (inactive) | > 100 µM (inactive) | > 100 µM (inactive) | > 100 µM (inactive) | > 100 µM (inactive) | > 100 µM (inactive) | > 100 µM (inactive) | > 100 µM (inactive) | > 100 µM (inactive) | > 100 µM (inactive)
C=CC(C)(C)NC(C(=O)N1CCC[C@H]1c1nc(-c2nc(C(=O)OCC=C(C)C)c(C)o2)c(C)o1)C(C)C (some centres undefined) | > 50 µM (inactive) | > 49.2 µM (inactive) | > 53.8 µM (inactive) | > 52 µM (inactive) | > 52 µM (inactive) | > 48.2 µM (inactive) | > 100 µM (inactive) | 33.3 µM (inactive) | > 100 µM (inactive) | > 58.7 µM (inactive) | 47.5 µM (inactive) | 52.1 µM (inactive) | > 55.2 µM (inactive) | > 76 µM (inactive) | > 55 µM (inactive) | > 64 µM (inactive) | > 60.7 µM (inactive) | 45.8 µM (inactive) | > 59.7 µM (inactive) | > 48.2 µM (inactive)
